According to patent publication US10487117B2, “Antimicrobial peptide for nosocomial infections” (priority 2015, dated 2019):
Values joined by “and” are separate entries in the source; they are usually repeats but may differ in a detail not shown here. Equal values may be shown once. Residues, ends and D or L forms follow the SMILES beside them.

Experiments:
[1] = system: planktonic P. aeruginosa; assay: DiSC3(5) cytoplasmic membrane depolarization assay, planktonic; assay type: cell-based, Pseudomonas aeruginosa; conditions: 10% Triton X-100 as maximum reference
Procedure: To further investigate the antimicrobial mechanism of action of the peptide, its ability to depolarize P. aeruginosa membranes was evaluated. Depolarization activity was analyzed by the DiSC3(5) assay (Table 5). DiSC3(5) is a fluorescent probe, which is sensitive to membrane potential. The DiSC3(5) fluorescence is quenched upon interaction with intact cell membranes. When the membrane potential is lost, the probe is released to the medium, resulting in an increase of fluorescence that can be recorded as a function of peptide concentration. Thus, the half depolarization action (ED50) was evaluated, defined as the peptide concentration needed to achieve a half-depolarization effect, and the total depolarization activity at final incubation time (Table 3).
(§1) Membrane depolarization was followed using the method described earlier (Torrent M. et al. 2008). Briefly, bacterial cells were grown at 37° C. to an OD600=0.2, centrifuged at 5000×g for 7 min, washed with 5 mM Hepes at pH 7.2 containing 20 mM glucose, and resuspended in 5 mM Hepes-KOH, 20 mM glucose, and 100 mM KCl at pH 7.2 to an OD600=0.05 and 200 μl were transferred to a microtiter plate for planktonic assays. For biofilm assay, 24 h formed P. aeruginosa biofilm in a 96-well microtiter plate were washed three times with sterile PBS. Afterwards P. aeruginosa biofilms were washed with 5 mM Hepes at pH 7.2 containing 20 mM glucose, and rinsed in 5 mM Hepes-KOH, 20 mM glucose, and 100 mM KCl at pH 7.2. In both cases, DiSC3(5) was added to a final concentration of 0.4 μM and changes in the fluorescence were continuously recorded after addition of peptides at 10 μM in a Victor3 plate reader. A maximum reference value for total depolarization is calculated for Triton X-100 at 10%. Alternatively, changes in the fluorescence were continuously recorded after addition of a serially diluted protein/peptides from 50 to 0.1 μM. The peptide concentration required to achieve half of total and total membrane depolarization after 40 min incubation time was estimated from nonlinear regression analysis as previously described (Torrent M. et al. 2010)

[2] = system: planktonic P. aeruginosa; assay: SYTOX Green membrane permeabilization assay, planktonic; assay type: cell-based, Pseudomonas aeruginosa; conditions: 10% Triton X-100 as maximum reference
Procedure: Further insight into the membrane-permeabilizing effect of the selected AMPs against P. aeruginosa was evaluated by the Sytox Green assay. Local membrane disturbances allow the cell uptake of the fluorescent Sytox Green dye that subsequently stains the cell nucleic acids; the fluorescence increase is registered to monitor the cell membrane permeabilization. Therefore, the half permeabilization action (ED50) was measured, and the total permeabilization activity expressed as a percentage (Table 5). […] On the other hand, WY-12 and CA-M required a 6- to 7-fold greater concentration than RNase 3 to produce half of their permeabilizing effect.
(§2) Membrane permeabilization was followed using the method SYTOX Green Fluorescence membrane permeabilization assay. In the planktonic assay, bacterial cells were grown at 37° C. to an OD600=0.2, centrifuged at 5000×g for 5 min, and resuspended in 1×PBS to an OD600=0.2. An aliquot of 200 μl was then transferred to a microtiter plate. For biofilm assay, 24 h formed P. aeruginosa biofilm in a 96-well microtiter plate were washed three times with sterile PBS. SYTOX Green was added to a final concentration of 1 μM and incubated 15 min in darkness. Changes in the fluorescence were continuously recorded after addition of a serially diluted protein/peptides from 50 to 0.1 μM in a Victor3 plate reader. The peptide concentration required to achieve half of total and total membrane permeabilization achieved after 40 min was estimated from nonlinear regression analysis as previously described (Pulido D. et al. Antimicrob Agents Chemother 2013). A maximum reference value was taken for Triton X-100 at 10%.

[3] = system: pre-established P. aeruginosa biofilm; assay: Biofilm eradication assay, crystal violet staining; assay type: cell-based, Pseudomonas aeruginosa; conditions: 24 h formed biofilm; 4 h at 37° C.; 10% Triton X-100 as maximum reference
Procedure: Following, the biofilm eradication activity was determined (FIG. 1 and Table 6). […] Moreover, the biofilm eradication activity of all the tested reference peptides was well above the maximum concentration tested (50 μM), except for RN3(5-17P22-36) which was able to eradicate the biofilm close to 50 μM.
(§3) Biofilm formation assay was modified from the previously described protocol (Huedo P. et al. 2014). Briefly, overnight cultures of P. aeruginosa were centrifuged at 5000×g for 5 min, washed and adjusted to an OD600=0.1 in tryptic soy medium (TSB). Two hundred microliters of the bacterial suspension were dispensed in each well of a polystyrene 96-well microtiter plate (Greiner Bio-one, France). The plate was incubated at 37° C. on an orbital shaker (30 rpm). The media was exchanged with fresh pre-warmed TSB after 4 h, in order to remove the non-attached bacteria. After 24 h incubation, the formation of biofilm was then evaluated using the crystal violet staining technique (Stepanovic S. et al. 2000). Briefly, the plates were washed three times with PBS, fixed at 60° C. for 1 h, and stained for 15 min with 200 μl of 0.1% crystal violet. After the dye was discarded, plates were rinsed in PBS and allowed to dry for 30 min at 37° C. Crystal violet was dissolved in 250 μl of 95% ethanol for 15 min, and the OD570 of the extracted dye was measured using a Victor3 plate reader (Perkin-Elmer, Waltham, Mass.).
Biofilms were grown as above. Twenty-four hour formed P. aeruginosa biofilm was washed three times with sterile PBS, and rinsed with 10 mM sodium phosphate buffer pH 7.5. Each well was treated with increasing protein/peptide concentrations (from 0.01 to 50 μM) and incubated at 37° C. for 4 h. The biofilm eradication was then evaluated using the crystal violet staining technique (Stepanovic S. et al. 2000). The ability of the antimicrobial peptides to disperse and reduce the biofilm mass of preformed biofilms was calculated. The peptide concentration required to achieve total preformed biofilm eradication after 4 h incubation time was estimated. A maximum reference value was taken for Triton X-100 at 10%. The minimum biofilm eradication concentration (MBEC), defined as the protein/peptide concentration where the 99.9% of the biofilm mass is eradicated was estimated.

[4] = Biofilm cell mortality, BacTiter-Glo luminescent assay; assay type: cell-based, Pseudomonas aeruginosa; conditions: 24 h formed biofilm; 4 h at 37° C.; 10% Triton X-100 as maximum reference; N.D. = not detected at 50 μM; read-out: Biofilm cell mortality (%max)
Procedure: (§4) Bacterial viability was assayed using the BacTiter-Glo™ microbial cell viability kit. Briefly, protein/peptides were dissolved in 10 mM sodium phosphate, 0.1M buffer, pH 7.5, serially diluted from 50 to 0.1 μM and tested in a 96-well microtiter plate containing P. aeruginosa planktonic (OD600˜0.2) or 24 h formed biofilm for 4 h at 37° C. Fifty microliters of BacTiter-Glo™ reagent was added to each well according to the manufacturer's instructions and incubated at room temperature for 15 min. Luminescence was read on a Victor3 plate reader with a 3-s integration time. Fifty percent (ED50) and total inhibitory concentrations were calculated by fitting the data to a dose-response curve.
(§5) As a first approach, the biofilm cell viability was monitored using the BacTiter-Glo™ luminescent assay. Therefore, the antimicrobial action of the studied AMPs was determined on already established P. aeruginosa biolfilms (FIG. 1 and Table 6). […] However, for all the active peptides, the concentrations needed to produce an equivalent effect in biofilms were between 2 to 10 times higher than in planktonic cultures. […] At the same time, we applied the crystal violet technique to assess the peptide ability to disperse pre-established P. aeruginosa biofilms.
as §3

[5] = system: established P. aeruginosa biofilms; assay: DiSC3(5) membrane depolarization assay on biofilm; assay type: cell-based, Pseudomonas aeruginosa; conditions: maximum percentage at final incubation time, 10% Triton X-100 reference
Procedure: as §1
(§6) Thereupon, the antimicrobial mechanism of action of the RNase 3 derived peptide on P. aeruginosa biofilms was further characterized with the depolarization and permeabilization assays. As applied for the P. aeruginosa planktonic culture, the fluorescent DisC3(5) assay was also used here in order to monitor the depolarization activity of the studied protein and peptides against established biofilms. Therefore, we have measured the half depolarization action (ED50), and the total depolarization activity expressed as a percentage (Table 7). […] Similar results were obtained for the Sytox Green permeabilization assay, where the total permeabilization effect was hindered for all the AMPs tested, and between two to ten times higher concentrations were required to achieve half of the biofilm cell permeabilizing effect in comparison to the planktonic cells.

[6] = system: established P. aeruginosa biofilms; assay: SYTOX Green membrane permeabilization assay on biofilm; assay type: cell-based, Pseudomonas aeruginosa; conditions: maximum percentage at final incubation time, 10% Triton X-100 reference
Procedure: as §2, §6

[7] = system: planktonic P. aeruginosa; assay type: cell-based, Pseudomonas aeruginosa; conditions: planktonic P. aeruginosa; 4 h at 37° C.; mean ± SEM; N.D. = not detected at 50 μM; read-out: IC50 (50% bacterial viability)
Procedure: The microbial cell viability was then assayed using the BacTiter-Glo™ luminescent kit. […] No cell reduction was detected for the peptide GL-13 even for the maximum concentration assayed (50 μM).
as §4

[8] = system: LPS (lipopolysaccharides) from P. aeruginosa; assay: LPS binding assay, BODIPY TR cadaverine (BC) displacement; design: species or system Pseudomonas aeruginosa; conditions: 100% = total displacement of the dye; mean ± SEM
Procedure: Following, LPS binding affinity was monitored by a fluorometric assay which measures the competitive displacement of a cadaverine fluorescent probe (BC) by the protein and peptides. The half LPS binding affinity (ED50), defined as the AMP concentration needed to achieve half of BC displacement, and the total LPS binding affinity, expressed as a percentage, were determined (Table 4). Interaction with negatively charged surfaces of bacteria is the first step for cationic peptides to reach the bacterial membranes and exert their antimicrobial action.
LPS binding was assessed using the fluorescent probe BODIPY TR cadaverine (BC) as previously described (Pulido D. et al. Febs J 2013). BC binds strongly to native LPS, specifically recognizing the lipid A portion. When a protein that interacts with LPS is added, BC is displaced from the complex and its fluorescence is increased, decreasing its occupancy factor. LPS-binding assays were carried out in a 10 mM Hepes buffer at pH 7.5. The displacement assay was performed using a 96 well microtiter plate containing stirred mixture of either LPS (10 μg/mL) and BC (10 μM). Protein/peptides were serially diluted from 10 to 0.1 μM. Fluorescence measurements were performed on a Victor3 plate reader (Perkin Elmer, Waltham, Mass.). The protein/peptide concentration required to achieve half of total and total BC displacement was estimated from nonlinear regression analysis as previously described (Wood S. J. et al. 2004)

[9] = system: pre-established P. aeruginosa biofilm; assay: Biofilm cell mortality, BacTiter-Glo luminescent assay; assay type: cell-based, Pseudomonas aeruginosa; conditions: 24 h formed biofilm; 4 h at 37° C.; 10% Triton X-100 as maximum reference; N.D. = not detected at 50 μM
Procedure: as §4, §5, §3

| Molecule | Depolarization %max [1] | Permeabilization %max [2] | Biofilm eradication (%max) [3] | mortality [4] | Depolarization Mean % ± SEM [5] | Permeabilization Mean % ± SEM [6] | IC50 [7] | LPS binding %max (percentage of maximum displacement) [8] | Biofilm cell mortality (%max) [9] |
| --- | --- | --- | --- | --- | --- | --- | --- | --- | --- |
| CC[C@H](C)[C@H](NC(=O)[C@H](Cc1ccccc1)NC(=O)[C@@H](NC(=O)[C@H](Cc1ccccc1)NC(=O)[C@H](CCCNC(=N)N)NC(=O)[C@H](CCCCN)NC(=O)[C@H](CCCNC(=N)N)NC(=O)[C@H](CCCCN)NC(=O)[C@H](Cc1c[nH]c2ccccc12)NC(=O)[C@H](CC(C)C)NC(=O)[C@@H](NC(=O)[C@@H](N)Cc1ccc(O)cc1)C(C)C)[C@@H](C)CC)C(N)=O [WY-12, YVLWKRKRFIFI-NH2] (H-YVLWKRKRFIFI-NH2; N-terminus assumed) | 44.02 ± 4.01% | 39.43 ± 1.19% | 38.36 ± 2.36% | 39.7 ± 8.93% | 32.58 ± 1.87% | 18.91 ± 2.23% | – | – | – |
| RNase 3: Recombinant human RNase 3, also known as eosinophil cationic protein (ECP), parental protein of the peptide (protein, UniProt P12724 28-160, looked up) Eosinophil cationic protein: RPPQFTRAQWFAIQHISLNPPRCTIAMRAINNYRWRCKNQNTFLRTTFANVVNVCGNQSIRCPHNRTLNNCHRSRFRVPLLHCDLINPGAQNISNCTYADRPGRRFYVVACDNRDPRDSPRYPVVPVHLDTTI | – | 45.67 ± 2.29% | – | – | 46.11 ± 3.21% | 39.4 ± 2.88% | 840 ± 30 nM | 99.85 ± 9.51% | ~50% and 67.31 ± 0.79% |
